Assay results taken from patent publication US20230322715A1, “BROAD SPECTRUM ANTI-CANCER COMPOUNDS” (The Regents of the University of California, priority 2019, published 2023).
Several values for one entry are separate records, joined by “and”; a condition that tells them apart may be missing. Identical values can stand only once. Like-named read-outs stand apart in the source and are kept apart here.

Experiments:
[1] = system: cancer cells by cancer type; settings: read-out: EC50 of Chemo SOC, cited from earlier work
[2] = molecular target: FTO (Homo sapiens (Human), UniProt Q9C0B1); test: Fluorescence enzymatic inhibition assay (m6A7-Broccoli RNA / DFHBI-1T) against FTO; assay type: biochemical; settings: for IC50: m6A7-Broccoli fluorescence assay, 0.250 μM FTO, inhibitor up to 40 μM, triplicate, read-out: Enzymatic IC50 FTO; for precipitation in assay buffer: dose response could not be determined; for selectivity between FTO and ALKBH5: comparison of enzymatic IC50 values
Chain of FTO (Q9C0B1 whole entry): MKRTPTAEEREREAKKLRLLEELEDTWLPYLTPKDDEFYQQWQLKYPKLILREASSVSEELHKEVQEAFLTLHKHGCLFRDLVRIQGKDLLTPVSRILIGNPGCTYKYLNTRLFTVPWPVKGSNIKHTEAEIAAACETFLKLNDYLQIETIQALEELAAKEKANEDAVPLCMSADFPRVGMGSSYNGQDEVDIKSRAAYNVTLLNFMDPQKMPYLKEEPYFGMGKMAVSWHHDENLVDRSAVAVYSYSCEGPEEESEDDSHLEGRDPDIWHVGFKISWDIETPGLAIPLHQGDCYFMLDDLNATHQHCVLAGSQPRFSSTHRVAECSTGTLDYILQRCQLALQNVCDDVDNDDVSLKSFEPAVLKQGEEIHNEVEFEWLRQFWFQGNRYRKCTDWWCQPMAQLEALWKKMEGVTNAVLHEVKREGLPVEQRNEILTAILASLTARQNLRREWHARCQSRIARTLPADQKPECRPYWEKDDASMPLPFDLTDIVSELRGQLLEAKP
Method: In order to determine their efficacy as FTO inhibitors, the compounds were screened by a fluorescence enzymatic inhibition assay developed previously by the Jaffrey lab.^44 Briefly, a nonfluorescent methylated RNA substrate termed “m6A7-Broccoli” is incubated with FTO in the presence of 2-oxoglutarate (300 μM), (NH4)2Fe(SO4)2·6H2O (300 μM), and L-ascorbate (2 mM) for 2 hours at room temperature in reaction buffer (50 mM NaHEPES, pH 6).
(§1) Inhibitors were added in concentrations ranging from 0.008-40 μM; all inhibitors were dissolved in DMSO and added to a final concentration of 0.2% DMSO. […] After incubation at room temperature for 2 hours, the plates were left at 4° C. overnight (16 hours) to allow DFHBI-1T to bind to A7-Broccoli RNA. […] Sigmoidal dose-response curves were fitted in GraphPad Prism 6. All assays were performed in triplicate, with additional repetitions added as necessary.

[3] = molecular target: ALKBH5 (Homo sapiens (Human), UniProt Q6P6C2); test: Fluorescence enzymatic inhibition assay (m6A7-Broccoli RNA / DFHBI-1T) against ALKBH5; assay type: biochemical; settings: for IC50: m6A7-Broccoli fluorescence assay, 0.250 μM ALKBH5, read-out: Enzymatic IC50 ALKBH5
Chain of ALKBH5 (Q6P6C2 whole entry): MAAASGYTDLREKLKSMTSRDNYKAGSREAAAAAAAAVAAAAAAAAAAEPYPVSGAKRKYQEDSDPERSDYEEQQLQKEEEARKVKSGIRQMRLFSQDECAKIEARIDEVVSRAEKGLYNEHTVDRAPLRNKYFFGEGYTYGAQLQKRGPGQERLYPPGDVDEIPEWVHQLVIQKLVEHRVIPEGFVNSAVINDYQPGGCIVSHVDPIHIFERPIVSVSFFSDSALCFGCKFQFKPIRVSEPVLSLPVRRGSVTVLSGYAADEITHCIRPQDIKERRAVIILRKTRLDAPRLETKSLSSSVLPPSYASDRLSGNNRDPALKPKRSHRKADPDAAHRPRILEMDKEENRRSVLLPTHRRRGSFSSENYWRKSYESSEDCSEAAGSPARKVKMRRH
Method: as §1

[4] = elogD / log D determination

SMILES	IC50 [2]	IC50 [3] [µM]	melting point [°C]	selectivity between FTO and ALKBH5 [2]	other results
O=c1[nH]cc(F)c(=O)[nH]1 [5FU, fluorouracil]					EC50 ([1]; Colon): 2 to 10 µM; EC50 ([1]; Gastric): 28.8 µM
Nc1ccn([C@@H]2O[C@H](CO)[C@@H](O)[C@@H]2O)c(=O)n1 [Cytarabine]					EC50 ([1]; Leukemia): 0.25 to 3.5 µM
Oc1ccc2cc(-c3cncnc3)ccc2c1 [FTO-1, 6-(pyrimidin-5-yl)naphthalen-2-ol]	41.7 µM	> 40	230		inhibition of ALKBH5 at the highest concentration measured [3]: no measurable inhibition
COc1ncc(-c2cccc(OCc3ccccc3)c2)cn1 [FTO-3, 5-(3-(benzyloxy)phenyl)-2-methoxypyrimidine]			230		precipitation in assay buffer [2]: significant precipitation
COc1ccc2cc(-c3cncnc3)ccc2c1 [FTO-5, 5-(6-methoxynaphthalen-2-yl)pyrimidine]	13.4 ± 2.3 µM	> 40	230	five-fold or higher	inhibition of ALKBH5 at the highest concentration measured [3]: no measurable inhibition
COc1ncc(-c2ccc(CO)c(OC)c2)cn1 [FTO-6, (2-methoxy-4-(2-methoxypyrimidin-5-yl)phenyl)methanol]	13.8 ± 2.4 µM		230	five-fold or higher	
Cc1ccc2cc(-c3cncnc3)ccc2n1 [FTO-7, 2-methyl-6-(pyrimidin-5-yl)quinoline]	29.1 µM	> 40	230		inhibition of ALKBH5 at the highest concentration measured [3]: no measurable inhibition
COc1ccc2cc(-c3cnc(OC)nc3)ccc2c1 [FTO-8, 2-methoxy-5-(6-methoxynaphthalen-2-yl)pyrimidine]		16.4	230	equivalent inhibitors towards both demethylases	
Nc1ncc(-c2cccc(Nc3ccccc3)c2)cn1 [FTO-9, 5-(3-(phenylamino)phenyl)pyrimidin-2-amine]	> 40 µM and 43.8 µM	5.2	230	distinct preference towards ALKBH5 over FTO	
Nc1ncc(-c2cccc(OCc3ccccc3)c2)cn1 [FTO-13, 5-(3-(benzyloxy)phenyl)pyrimidin-2-amine]	36.7 µM	14.9	230	distinct preference towards ALKBH5 over FTO	
Cc1ccc2cc(-c3cnc(N)nc3)ccc2n1 [FTO-14, 5-(2-methylquinolin-6-yl)pyrimidin-2-amine]	59.6 µM		230		
COCCNc1ncc(-c2ccc3cc(OC)ccc3c2)cn1 [FTO-15, N-(2-methoxyethyl)-5-(6-methoxynaphthalen-2-yl)pyrimidin-2-amine]			230		precipitation in assay buffer [2]: significant precipitation
COCCNc1ncc(-c2ccc3cc(O)ccc3c2)cn1 [FTO-16, 6-(2-((2-methoxyethyl)amino)pyrimidin-5-yl)naphthalen-2-ol]	46.5 µM		230		
COCCNc1ncc(-c2ccc3ccc(O)cc3c2)cn1 [FTO-17, 7-(2-((2-methoxyethyl)amino)pyrimidin-5-yl)naphthalen-2-ol]	51.9 µM		230		
COCCNc1ncc(-c2ccc(OCc3ccccc3)cc2)cn1 [FTO-18, 5-(4-(benzyloxy)phenyl)-N-(2-methoxyethyl)pyrimidin-2-amine]		> 40	230		inhibition of ALKBH5 at the highest concentration measured [3]: no measurable inhibition
COCCNc1ncc(-c2ccc3nc(C)ccc3c2)cn1 [FTO-19, N-(2-methoxyethyl)-5-(2-methylquinolin-6-yl)pyrimidin-2-amine]	25.2 µM	53.5	230	equivalent inhibitors towards both demethylases	
COCCNc1ncc(-c2ccc(CO)c(OC)c2)cn1 [FTO-20, (2-methoxy-4-(2-((2-methoxyethyl)amino)pyrimidin-5-yl)phenyl)methanol]	17.2 ± 2.9 µM	90.2 ± 7.8	230	five-fold or higher	
O=C(c1cc(Cc2n[nH]c(=O)c3ccccc23)ccc1F)N1CCN(C(=O)C2CC2)CC1 [Olaparib]					EC50 ([1]; Breast): 30 µM
FC(F)(F)c1cccc(CNCC2(N3CCCC3)COC2)c1 [TR-FTO-02]	4.3 µM	19.5			elogD [4]: 1.02
